Patent EP2876156A1 (COMMISSARIAT A L'ENERGIE ATOMIQUE ET AUX ENERGIES …, priority 2013, dated 2015)

Columns and labels:
Assay type in all cases: biochemical
ENZ1 (SEQ ID NO:1) = target: T1, ENZ1 (SEQ ID NO:1) (Catenulispora acidiphila, UniProt C7QJ42); experiment: Enzymatic hydroxylation of L-lysine, 10 mL scale, conversion by HPLC (protocol A); conditions: ENZ1 0.024 mg/mL, L-lysine 10 mM, α-ketoglutarate 15 mM, sodium ascorbate 2.5 mM, Fe(II) 1 mM, Hepes pH 7.50, room temperature, 18h
T1 construct: His6 (hexahistidine, inserted after the initial methionine) (N); made in house; host or cells: E. coli BL21(DE3) plysE
T1 sequence (C7QJ42 1-358): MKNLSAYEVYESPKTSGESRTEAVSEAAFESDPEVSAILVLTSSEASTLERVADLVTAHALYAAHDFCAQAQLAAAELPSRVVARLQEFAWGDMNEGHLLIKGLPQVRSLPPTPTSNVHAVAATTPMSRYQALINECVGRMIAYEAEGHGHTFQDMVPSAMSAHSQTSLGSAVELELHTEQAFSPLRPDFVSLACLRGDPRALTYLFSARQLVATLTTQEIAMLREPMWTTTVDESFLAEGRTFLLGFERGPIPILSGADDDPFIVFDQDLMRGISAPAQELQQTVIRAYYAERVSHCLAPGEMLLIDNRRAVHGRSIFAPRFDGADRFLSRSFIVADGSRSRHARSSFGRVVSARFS
Experimental: (§1) Enzymatic reaction medium (0.2 µmole, leq.), borate buffer 0,2M pH 7.7 (80 µL) and Fmoc-Cl solution7.5 mM in acetone (100 µL, 0.75 µmole, 3.75 eq) were hand shaked in a closed 1.50 mL eppendorf for one minute. The aqueous layer was extracted with petroleum ether (3*1 mL) to eliminate excess of Fmoc-Cl. 70 µL of the aqueous phase were withdrawn, diluted with 70 µL of acetonitrile and injected into the HPLC. For substrates with two amine functions, 100 µL of Fmoc-Cl solution 15 mM were used.
(§2) Conditions for HPLC analysis: Atlantis® T3 (3 µm 4.5*150 mm) at 35°C with the gradient 50-86% eluent B (MeCN + 0.1% TFA) and eluent A (H2O + 0.1% TFA) in 20 min at 1 mL/min.
Enzymatic reaction was carried out in 250 mL glass erlenmeyer flask for a total volume of 4*10 mL. Water (4.8 mL), Hepes buffer 1M pH 7.50 (0.5 mL, 50 mM), L-lysine 50 mM (2 mL, 10 mM), α-ketoglutarate 150 mM (1 mL, 15 mM), sodium ascorbate 100 mM (0.25 mL, 2.5 mM), ammonium Iron(II) sulfate hexahydrate 10 mM (1 mL, 1 mM) were poured into the erlenmeyer flask. The reaction was started by the enzyme addition (0.53 mg/mL, 0.45 mL, final concentration 0.024 mg/mL). The reaction mixture was orbitally shaken (300 rpm) at room temperature for 18h. The conversion of L-lysine into 3-hydroxy-L-lysine (94%) was determined by HPLC after derivatization with Fmoc-Cl according to protocol A.

ENZ6 (SEQ ID NO:10) = target: T2, ENZ6 (SEQ ID NO:10) (Flavobacterium sp., UniProt J3BZS6); experiment: Hydroxylation capability, HPLC analysis of reaction media after derivatization
T2 construct: His6 (hexahistidine, inserted after the initial methionine) (N); made in house; host or cells: E. coli BL21(DE3) plysE
Experimental: (§3) Enzymes (0.08 mg/mL) were screened against substrates (molar ratio α-ketoglutarate/substrate 15/10) in Hepes buffer 50 mM pH 7,5, with Mohr's salt at 1mM and without sodium ascorbate, at room temperature for three hours. The potential conversions of the substrates were determined by HPLC after Fmoc-Cl derivatization as section III here above.
(§4) The hydroxylation capability of two other enzymes, namely ENZ6 (SEQ ID NO:10) and ENZ5 (SEQ ID NO:9) were also assessed. The amino sequence of ENZ6 has 79% of amino acid identity with SEQ ID NO:2 of ENZ2 while the amino sequence of ENZ5 has 72% of amino acid identity with SEQ ID NO:3 of ENZ3. […] As shown in part VI, ENZ6 and ENZ5 provide (4R)-hydroxy-L-lysine from L-lysine similarly to ENZ2 and ENZ3. Thus ENZ6 and ENZ5 are likely to have the same substrate selectivity and provide similar products as ENZ2 and ENZ3.

ENZ5 (SEQ ID NO:9) = target: T3, ENZ5 (SEQ ID NO:9) (Niastella koreensis, UniProt G8T8D0); experiment: as above
T3 construct: His6 (hexahistidine, inserted after the initial methionine) (N); made in house; host or cells: E. coli BL21(DE3) plysE
T3 sequence (G8T8D0 1-371): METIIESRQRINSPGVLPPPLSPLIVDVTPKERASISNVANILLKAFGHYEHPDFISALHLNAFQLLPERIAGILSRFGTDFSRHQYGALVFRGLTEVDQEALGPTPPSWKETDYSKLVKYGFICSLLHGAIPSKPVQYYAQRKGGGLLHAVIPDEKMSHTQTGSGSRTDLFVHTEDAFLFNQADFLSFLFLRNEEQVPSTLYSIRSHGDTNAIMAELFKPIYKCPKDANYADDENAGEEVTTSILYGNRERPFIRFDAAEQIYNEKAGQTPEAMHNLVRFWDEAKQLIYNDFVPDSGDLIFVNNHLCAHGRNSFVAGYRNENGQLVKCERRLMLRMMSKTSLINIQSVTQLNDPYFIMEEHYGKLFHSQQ
Experimental: as §3, §4

ENZ3 SEQ ID NO:3 [1] = target: T4, ENZ3 SEQ ID NO:3 (Chitinophaga pinensis, UniProt C7PLM6); conditions: enzyme 0.08 mg/mL, molar ratio α-ketoglutarate/substrate 15/10, Hepes buffer 50 mM pH 7,5, Mohr's salt 1mM, without sodium ascorbate, room temperature, three hours
T4 construct: His6 (hexahistidine, inserted after the initial methionine) (N); made in house; host or cells: E. coli BL21(DE3) plysE
T4 sequence (C7PLM6 1-382): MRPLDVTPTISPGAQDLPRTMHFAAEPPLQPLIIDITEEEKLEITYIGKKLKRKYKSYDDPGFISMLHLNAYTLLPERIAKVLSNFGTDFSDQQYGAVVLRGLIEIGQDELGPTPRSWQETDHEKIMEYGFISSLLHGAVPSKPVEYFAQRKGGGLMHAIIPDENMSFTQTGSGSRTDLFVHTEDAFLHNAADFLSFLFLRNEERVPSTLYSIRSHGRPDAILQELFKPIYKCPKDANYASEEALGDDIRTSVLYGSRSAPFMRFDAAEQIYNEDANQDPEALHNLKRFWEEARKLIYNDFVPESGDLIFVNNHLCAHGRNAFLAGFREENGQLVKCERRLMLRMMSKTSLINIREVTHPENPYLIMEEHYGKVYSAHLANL
Experimental: as §1, §2, §3

ENZ3 SEQ ID NO:3 [2] = target: T4, ENZ3 SEQ ID NO:3; experiment: Enzymatic hydroxylation of L-lysine, 10 mL scale, conversion by HPLC (protocol A); conditions: printed 'with ENZ1'; protocol lists ENZ3 0.031 mg/mL; otherwise as ENZ1 protocol (L-lysine 10 mM, room temperature, 18h)
Experimental: as §1, §2
(§5) Enzymatic reaction was carried out in 250 mL glass erlenmeyer flask for a total volume of 4*10 mL. […] The conversion of L-lysine into 3-hydroxy-L-lysine (94%) was determined by HPLC after derivatization with Fmoc-Cl according to protocol A.
(§6) The protocol used was the same as that described above for the hydroxylation by ENZ1 except that the enzyme concentrations used were different (ENZ2: 0.086 mg/mL; ENZ3: 0.031 mg/mL). Conversions were determined by HPLC after derivatization with Fmoc-Cl according to protocol A as described above. […]

ENZ2 (SEQ ID NO:2) = target: T5, ENZ2 (SEQ ID NO:2) (Flavobacterium johnsoniae, UniProt A5FF23); experiment: as above; conditions: with ENZ2 0.086 mg/mL; otherwise as ENZ1 protocol (L-lysine 10 mM, room temperature, 18h)
T5 construct: His6 (hexahistidine, inserted after the initial methionine) (N); made in house; host or cells: E. coli BL21(DE3) plysE
Experimental: as §1, §2, §5, §6

T5 sequence (A5FF23 whole entry): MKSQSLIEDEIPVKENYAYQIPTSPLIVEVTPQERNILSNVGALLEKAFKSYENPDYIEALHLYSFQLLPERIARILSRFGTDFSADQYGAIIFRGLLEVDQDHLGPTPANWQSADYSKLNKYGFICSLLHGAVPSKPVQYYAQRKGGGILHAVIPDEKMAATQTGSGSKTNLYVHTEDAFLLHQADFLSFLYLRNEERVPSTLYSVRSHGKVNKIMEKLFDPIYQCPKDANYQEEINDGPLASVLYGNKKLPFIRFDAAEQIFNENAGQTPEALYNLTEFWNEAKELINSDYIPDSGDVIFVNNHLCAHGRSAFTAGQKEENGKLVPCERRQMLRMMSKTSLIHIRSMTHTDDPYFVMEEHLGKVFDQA
T2 sequence (J3BZS6 whole entry): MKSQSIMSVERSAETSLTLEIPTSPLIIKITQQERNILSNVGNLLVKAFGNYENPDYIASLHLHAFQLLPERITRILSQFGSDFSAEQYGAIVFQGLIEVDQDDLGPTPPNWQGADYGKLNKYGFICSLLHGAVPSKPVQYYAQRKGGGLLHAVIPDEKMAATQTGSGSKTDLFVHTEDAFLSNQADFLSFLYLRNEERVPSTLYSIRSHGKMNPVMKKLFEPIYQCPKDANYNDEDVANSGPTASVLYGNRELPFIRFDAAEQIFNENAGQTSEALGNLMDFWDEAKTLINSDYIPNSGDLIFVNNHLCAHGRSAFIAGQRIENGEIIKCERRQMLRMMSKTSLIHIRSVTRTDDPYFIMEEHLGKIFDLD

NCCCC[C@H](N)C(=O)O [L-lysine]
conversion of L-lysine into 3-hydroxy-L-lysine (ENZ1 (SEQ ID NO:1)): 94% | hydroxylation capability of ENZ6 (ENZ6 (SEQ ID NO:10)): capable of hydroxylating | hydroxylation capability of ENZ5 (ENZ5 (SEQ ID NO:9)): capable of hydroxylating | potential conversions of the substrates, ENZ3 SEQ ID NO:3 (ENZ3 SEQ ID NO:3 [1]): positive | conversion of L-lysine into (4R)-hydroxy-L-lysine (ENZ3 SEQ ID NO:3 [2]): 96% | conversion of L-lysine into (4R)-hydroxy-L-lysine (ENZ2 (SEQ ID NO:2)): 91%
